From patent US8912222B2, “Method to control insects resistant to common insecticides” (priority 2006, dated 2014)
Read-outs that look alike come from different tables or passages of the source. Marks after values point to notes of the source that are not given here.

Experiments:
[1] = system: insecticide-resistant Myzus persicae strain 4013A; assay: Leaf-disc dip bioassay on adult aphids, insecticide-resistant strain (Example IX); conditions: for Resistance Ratio: 4013A (R) vs US1L (S) LC50
Excerpt: (§1) Activity was compared to that of commercial insecticides representing major insecticide classes.
(§2) The common name associated with Myzus persicae is the green peach aphid. […] The “US1L” strain of M. persicae was the reference strain used in these tests.
(§3) Subsequent dilutions used a 10% solution of acetone in distilled water (containing 0.01% Agral®) as the diluent.
(§4) For M. persicae bioassays, discs cut from fully expanded leaves of Chinese cabbage (Brassica rapa ssp. Pekinensis cv. Won Bok) plants were dipped into serial dilutions of insecticide, allowed to air-dry, and placed onto agar-water (1%) beds in plastic Petri-dishes. Leaf discs immersed in the diluent only were used for controls. Adults were removed from rearing boxes and, using a fine camel-hair paint brush, 10 healthy, apterous females were placed onto each treated leaf disc and each unit sealed with a close-fitting, ventilated lid. All bioassays consisted of three replicates per dose (including controls). Mortality was scored at 24, 48 and 72 h following initial exposure for all compounds and the 72 h data were used for all analyses.
(§5) Mortality data were subjected to probit analysis to derive LC50 and LC90 estimates. Resistance ratios were calculated using the following equation: […]

[2] = system: Myzus persicae US1L strain (susceptible)
Excerpt: as §1, §2, §3, §4, §5

[3] = system: insecticide-resistant Q-biotype Bemisia tabaci strain CHLORAKA; assay: Leaf-disc dip bioassay on adult whiteflies, insecticide-resistant Q-biotype strain (Example IX); format: in vivo; conditions: for Resistance Ratio: CHLORAKA (R) vs SUD-S (S) LC50
Excerpt: (§6) The common name associated with the Q-biotype of B. tabaci is the sweetpotato whitefly. […] The SUD-S strain of B. tabaci was the reference strain used in these tests and is a laboratory strain that is fully susceptible to all insecticide groups.
(§7) Adult B. tabaci were removed from rearing cages using a motorized aspirator and, after brief narcosis, 20-30 healthy female whiteflies were placed onto each treated leaf disc. Each unit was sealed with a close-fitting, ventilated lid. Once adults had recovered from narcosis, dishes were inverted so that the leaf disc was facing abaxial side down allowing the adult whiteflies to orient normally. All bioassays consisted of three replicates per concentration (including controls). Mortality was assessed at 48 hours after initiation of the test for the commercial standards and at 72 hours for Compounds 2, 4, and 5.
(§8) Resistance ratios were calculated using the following equation: […]

[4] = system: Bemisia tabaci SUD-S strain (susceptible laboratory strain); assay: Leaf-disc dip bioassay on adult whiteflies, susceptible reference strain (Example IX); format: in vivo
Excerpt: as §6, §7, §8

[5] = system: insecticide-resistant Q-biotype Bemisia tabaci strain CHLORAKA; assay: Leaf-disc dip bioassay on adult whiteflies, neonicotinoid-resistant Q-biotype strain (Example VII); format: in vivo; conditions: for mortality at 40 ppm / mortality at 100 ppm / mortality at 500 ppm: 72 h; for Resistance Ratio: CHLORAKA (R) vs SUD-S (S) LC50
Protocol: (§9) The activity of commercial, neonicotinoid insecticides was also assessed and served as the basis for comparisons of relative efficacy on this insecticide-resistant whitefly strain.
as §6
(§10) Technical samples of Compounds 6 and 7 were initially dissolved in 90% acetone in distilled water (containing 0.01% Agral) to obtain 5000 ppm stock solutions. […] Commercial formulations of imidacloprid (Confidor, 200SL), thiamethoxam (Actara, 25WG) and acetamiprid (Mospilan, 20SP) were diluted using distilled water containing 0.01% Agral.
as §7, with “6” for “2, 4,”, “7.” for “5.”
(§11) Compounds 6, 7 and the commercial neonicotinoid insecticides imidacloprid, thiamethoxam and acetamiprid were tested in discriminating concentration bioassays against both whitefly strains. More extensive concentration-response bioassays against both whitefly strains were conducted for Compounds 6, 7 and imidacloprid. […] Resistance ratios were calculated using the following equation: […]

[6] = system: Bemisia tabaci SUD-S strain (susceptible laboratory strain); assay: Leaf-disc dip bioassay on adult whiteflies, susceptible reference strain (Example VII); format: in vivo; conditions: for mortality at 40 ppm / mortality at 100 ppm / mortality at 500 ppm: 72 h
Protocol: as §9, §6, §10
as §7, with “6” for “2, 4,”, “7.” for “5.”
as §11

[7] = system: Bemisia tabaci SUD-S strain (susceptible laboratory strain); assay: Leaf-disc dip bioassay on adult whiteflies, susceptible reference strain (Example VIII); format: in vivo
Protocol: as §9, with “The insecticidal activity of Compound 7 on adults from an insecticide-resistant, B-biotype Bemisia tabaci strain was assessed. The” for “The”
(§12) The common name associated with the B-biotype of B. tabaci is the silverleaf whitefly. The strain used in these tests, “GUA-MIX”, was collected from a variety of crops situated in the Zacapa Valley of Guatemala in January of 2004. […] The SUD-S strain of B. tabaci was the reference strain used in these tests and is a laboratory strain that is fully susceptible to all insecticide groups.
(§13) A technical sample of Compound 7 was initially dissolved in 90% acetone in distilled water (containing 0.01% Agral) to obtain a 5000 ppm stock solution. […] Commercial formulations of imidacloprid (Confidor, 200SL), thiamethoxam (Actara, 25WG) and acetamiprid (Mospilan, 20SP) were diluted using distilled water containing 0.01% Agral.
as §7, with “Compound 7.” for “Compounds 2, 4, and 5.”
as §11, with “Compound” for “Compounds 6,”

[8] = system: field-collected populations of the whitefly, Bemisia tabaci; conditions: field-collected B. tabaci strains, late 1990s onward; literature; cited from earlier work
[9] = system: insecticide-resistant B-biotype Bemisia tabaci strain GUA-MIX; assay: Leaf-disc dip bioassay on adult whiteflies, neonicotinoid-resistant B-biotype strain (Example VIII); format: in vivo; conditions: for Resistance Ratio: GUA-MIX (R) vs SUD-S (S) LC50
Protocol: as §9, with “The insecticidal activity of Compound 7 on adults from an insecticide-resistant, B-biotype Bemisia tabaci strain was assessed. The” for “The”
as §12, §13
as §7, with “Compound 7.” for “Compounds 2, 4, and 5.”
as §11, with “Compound” for “Compounds 6,”

[10] = probit analysis, 72 h mortality data
[11] = probit analysis, mortality at 72 hours for Compounds 2, 4, 5, 48 hours for commercial standards
[12] = Bemisia tabaci, read-out: Mortality, R Strain (CHLORAKA)
[13] = Bemisia tabaci, read-out: Mortality, S Strain (SUD-S)
[14] = Bemisia tabaci, 48 h, read-out: Mortality, R Strain (CHLORAKA)
[15] = Bemisia tabaci, 48 h, read-out: Mortality, S Strain (SUD-S)
[16] = Bemisia tabaci, 48 h, read-out: Mortality, R Strain (GUA-MIX)
[17] = Bemisia tabaci, 72 h, read-out: Mortality, S Strain (SUD-S)
[18] = Bemisia tabaci, 72 h, read-out: Mortality, R Strain (GUA-MIX)
[19] = probit analysis, mortality at 72 hours for Compounds 6 and 7, 48 hours for commercial standard
[20] = probit analysis, mortality at 72 hours for Compound 7, 48 hours for commercial standard

## Cc1nc(N(C)C)nc(OC(=O)N(C)C)c1C [Pirimicarb, pirimicarb]
[1]
  Resistance Ratio: >60**^
[1]; [10]
  LC50, R strain (4013A): >1000 ppm
[2]; [10]
  LC50, S strain (US1L): 14.8 ppm

## CC(c1ccc(C(F)(F)F)nc1)S(C)(=O)=NC#N (stereo not shown) [Compound 2, [1-(6-Trifluoromethylpyridin-3-yl)ethyl](methyl)-oxido-λ^4-sulfanylidenecyanamide]
[1]
  Resistance Ratio: 0.4
[1]; [10]
  LC50, R strain (4013A): 1.52 ppm
[3]
  Resistance Ratio: 2.8
[3]; [11]
  LC50, R strain (CHLORAKA): 5.0 ppm
[2]; [10]
  LC50, S strain (US1L): 4.13 ppm
[4]; [11]
  LC50, S strain (SUD-S): 1.8 ppm

## C[C@H](c1ccc(Cl)nc1)S(C)(=O)=NC#N (single isomer, unassigned) [Compound 6]
[5]; [12]
  mortality at 40 ppm: 39%
  mortality at 100 ppm: 79%
  mortality at 500 ppm: 96%
[5]
  Resistance Ratio: 6.1
[5]; in vivo
  LC50, R strain (CHLORAKA): 45 ppm
[6]; [13]
  mortality at 40 ppm: 99%
  mortality at 100 ppm: 100%
  mortality at 500 ppm: 100%
[6]; in vivo
  LC50, S strain (SUD-S): 7.4 ppm

## CC1(C)[C@H](C(=O)O[C@H](C#N)c2cccc(Oc3ccccc3)c2)[C@@H]1C=C(Br)Br [Deltamethrin, deltamethrin]
[1]
  Resistance Ratio: 60
[1]; in vivo
  LC50, R strain (4013A): 92 ppm
[3]
  Resistance Ratio: 815 ^
[3]; [11]
  LC50, R strain (CHLORAKA): 325 ppm
[2]; [10]
  LC50, S strain (US1L): 1.5 ppm
[4]; [11]
  LC50, S strain (SUD-S): 0.4 ppm

## C/C(=N\C#N)N(C)Cc1ccc(Cl)nc1 [Acetamiprid, acetamiprid]
[5]; [14]
  mortality at 32 ppm: 2%
  mortality at 512 ppm: 30%
[7]; [15]
  mortality at 32 ppm: 65%
  mortality at 512 ppm: 98%
[6]; [15]
  mortality at 32 ppm: 52%
  mortality at 512 ppm: 79%
[8]
  resistance of more recently-collected whitefly strains: comparable levels of resistance
[9]; [16]
  mortality at 32 ppm: 1%
  mortality at 512 ppm: 63%

## CC(c1ccc(Cl)nc1)S(C)(=O)=NC#N (stereo not shown) [Compound 5, [1-(6-Chloropyridin-3-yl)ethyl](methyl)oxido-λ^4-sulfanylidenecyanamide]
[1]
  Resistance Ratio: 0.2
[1]; [10]
  LC50, R strain (4013A): 12.5 ppm
[3]
  Resistance Ratio: 2.9
[3]; in vivo
  LC50, R strain (CHLORAKA): 13.2 ppm
[2]; in vivo
  LC50, S strain (US1L): 62.3 ppm
[4]; in vivo
  LC50, S strain (SUD-S): 4.5 ppm

## CCCSP(=O)(OCC)Oc1ccc(Br)cc1Cl (stereo not shown) [Profenofos, profenofos]
[3]
  Resistance Ratio: 189 ^
[3]; [11]
  LC50, R strain (CHLORAKA): 374 ppm
[4]; [11]
  LC50, S strain (SUD-S): 2.0 ppm

## C[C@@H](c1ccc(Cl)nc1)S(C)(=O)=NC#N (single isomer, unassigned) [Compound 7]
[5]; [12]
  mortality at 40 ppm: 37%
  mortality at 100 ppm: 79%
  mortality at 500 ppm: 97%
[5]
  Resistance Ratio: 5.9
[5]; in vivo
  LC50, R strain (CHLORAKA): 53 ppm
[7]; [17]
  mortality at 40 ppm: 84%
  mortality at 100 ppm: 95%
[7]; in vivo
  LC50, S strain (SUD-S): 9.3 ppm
[6]; [13]
  mortality at 40 ppm: 98%
  mortality at 100 ppm: 97%
  mortality at 500 ppm: 100%
[6]; in vivo
  LC50, S strain (SUD-S): 9.0 ppm
[9]; [18]
  mortality at 40 ppm: 70%
  mortality at 100 ppm: 79%
[9]
  Resistance Ratio: 3.3
[9]; in vivo
  LC50, R strain (GUA-MIX): 30.3 ppm

## CS(=O)(Cc1ccc(Cl)nc1)=NC#N (stereo not shown) [Compound 4, [(6-Chloropyridin-3-yl)methyl](methyl)oxido-λ^4-sulfanylidenecyanamide]
[1]
  Resistance Ratio: 0.7
[1]; [10]
  LC50, R strain (4013A): 103 ppm
[3]
  Resistance Ratio: 5.2
[3]; in vivo
  LC50, R strain (CHLORAKA): 16.5 ppm
[2]; in vivo
  LC50, S strain (US1L): 146 ppm
[4]; in vivo
  LC50, S strain (SUD-S): 3.1 ppm

## O=[N+]([O-])NC1=NCCN1Cc1ccc(Cl)nc1 [Imidacloprid, imidacloprid]
[5]; [14]
  mortality at 32 ppm: 2%
  mortality at 128 ppm: 2%
  mortality at 4096 ppm: 25%
[5]
  Resistance Ratio: >930**
[5]; imidacloprid at 1000 ppm
  effect of exposure on adults of the CHLORAKA strain: largely unaffected
[5]; [19]
  LC50, R strain (CHLORAKA): >4000 ppm
[7]; [15]
  mortality at 32 ppm: 74%
  mortality at 128 ppm: 87%
[7]; [20]
  LC50, S strain (SUD-S): 11.2 ppm
[6]; [15]
  mortality at 32 ppm: 83%
  mortality at 128 ppm: 95%
[6]; [19]
  LC50, S strain (SUD-S): 4.3 ppm
[8]
  resistance of more recently-collected whitefly strains: more than 100 fold
[1]
  Resistance Ratio: 17
[1]; [10]
  LC50, R strain (4013A): 15.3 ppm
[3]
  Resistance Ratio: >800**
[3]; imidacloprid at 1000 ppm
  effect of exposure on adults of the CHLORAKA strain: largely unaffected
[3]; [11]
  LC50, R strain (CHLORAKA): >1000 ppm
[9]; [16]
  mortality at 32 ppm: 8%
  mortality at 128 ppm: 39%
  mortality at 2048 ppm: 49%
[9]
  Resistance Ratio: >45.5**
[9]; imidacloprid concentrations of 1000 ppm
  effect on the majority of adults of the GUA-MIX strain: largely unaffected
[9]; [20]
  LC50, R strain (GUA-MIX): >500.0 ppm
[2]; [10]
  LC50, S strain (US1L): 0.9 ppm
[4]; [11]
  LC50, S strain (SUD-S): 1.2 ppm

## CN1COCN(Cc2cnc(Cl)s2)/C1=N\[N+](=O)[O-] [Thiamethoxam, thiamethoxam]
[5]; [14]
  mortality at 32 ppm: 0%
  mortality at 512 ppm: 15%
[7]; [15]
  mortality at 32 ppm: 57%
  mortality at 128 ppm: 73%
[6]; [15]
  mortality at 32 ppm: 85%
  mortality at 512 ppm: 94%
[8]
  resistance of more recently-collected whitefly strains: comparable levels of resistance
[9]; [16]
  mortality at 25 ppm: 10%
  mortality at 250 ppm: 51%
  mortality at 2500 ppm: 87%
